Test results taken from patent US20240174675A1, “SMALL MOLECULE REGULATORS OF ALVEOLAR TYPE 2 CELL PROLIFERATION FOR THE TREATMENT OF PULMONARY DISEASES” (THE SCRIPPS RESEARCH INSTITUTE, priority 2021, published 2024).
Counter-ions that a name gives are not always drawn.

What was measured:
[1] = Pharmacokinetic profiling, plasma and lung levels after intratracheal or inhalation delivery in the mouse; assay type: in vivo; details: mouse; IT dosing at 2 mg/kg (FIG. 2); after 48 h
Human DPP4 = target: T1, Human DPP4 (Homo sapiens, UniProt P27487); test: DPP4 activity assay (DPP4 Activity Assay Kit, fluorescent substrate); assay type: biochemical; details: Human DPP4; read-out: DPP4 inhibition IC50 [nM])
T1 construct: purchased Sigma-Aldrich MAK088
T1 sequence (P27487 whole entry): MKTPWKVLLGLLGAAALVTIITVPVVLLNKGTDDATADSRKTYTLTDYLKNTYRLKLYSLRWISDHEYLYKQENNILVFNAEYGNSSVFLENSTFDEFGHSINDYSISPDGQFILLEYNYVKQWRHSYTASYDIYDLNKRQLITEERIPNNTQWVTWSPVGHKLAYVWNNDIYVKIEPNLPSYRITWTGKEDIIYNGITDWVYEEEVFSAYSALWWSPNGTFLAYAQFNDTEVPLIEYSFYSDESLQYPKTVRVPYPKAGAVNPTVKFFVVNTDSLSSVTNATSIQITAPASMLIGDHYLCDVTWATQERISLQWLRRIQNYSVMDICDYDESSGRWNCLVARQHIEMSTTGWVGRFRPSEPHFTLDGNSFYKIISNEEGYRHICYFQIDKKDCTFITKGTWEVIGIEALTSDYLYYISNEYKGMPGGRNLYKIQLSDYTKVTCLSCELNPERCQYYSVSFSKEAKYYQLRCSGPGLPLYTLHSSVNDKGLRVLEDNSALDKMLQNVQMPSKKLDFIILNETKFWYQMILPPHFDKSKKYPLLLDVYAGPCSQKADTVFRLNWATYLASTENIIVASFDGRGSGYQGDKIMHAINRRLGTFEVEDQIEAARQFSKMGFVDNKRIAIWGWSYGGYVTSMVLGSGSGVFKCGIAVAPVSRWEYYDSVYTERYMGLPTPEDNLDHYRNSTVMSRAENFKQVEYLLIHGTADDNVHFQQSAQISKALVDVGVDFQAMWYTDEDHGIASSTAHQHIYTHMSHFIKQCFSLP
Procedure: DPP4 activity assay. Human DPP4 activity assay data were obtained using a DPP4 Activity Assay Kit (Sigma-Aldrich, MAK088) according to the manufacturer's instructions. Briefly, 10 μL of DPP4 Assay Buffer were transferred per well in low volume 384-well plates before transferring 10 μL of test compound dissolved in DPP4 assay buffer. To each well was added 5 μL of Master Reaction Mix containing a fluorescent substrate that becomes fluorescent upon cleavage by the enzyme. Fluorescence intensity measurements were recorded at 1-minute time intervals over the course of 20 minutes using an Envision Multimode Plate Reader (PerkinElmer).

## COC(=O)c1nc(C(F)(F)F)n2c1CN(C(=O)C[C@H](N)Cc1cc(F)c(F)cc1F)CC2 [retagliptin, reference compound]
[1]
  level in the lung after 48 h: very low

## N#C[C@@H]1CCCN1C(=O)CN[C@@]12CC3C[C@@H](C1)C[C@](OCCOCCn1cc(CNC[C@H](O)[C@@H](O)[C@H](O)[C@H](O)CO)nn1)(C3)C2 [Compound 14, (2S)-1-(((1S,3R,5S)-3-(2-(2-(4-((((2S,3R,4R,5R)-2,3,4,5,6-pentahydroxyhexyl)amino)methyl)-1H-1,2,3-triazol-1-yl)ethoxy)ethoxy)adamantan-1-yl)glycyl)pyrrolidine-2-carbonitrile]
Human DPP4
  IC50: 8.2 nM

## CC#CCn1c(N2CCC[C@@H](N)C2)nc2c1c(=O)n(Cc1nc(NC)ccc1C(=O)O)c(=O)n2C [Compound 31]
Human DPP4
  IC50: 11.4 nM

## CCCCCCCSC12CC3C[C@@H](CC(NCC(=O)N4CCC[C@H]4C#N)(C3)C1)C2 [Compound 2, (2S)-1-((3-(heptylthio)adamantan-1-yl)glycyl)pyrrolidine-2-carbonitrile]
Human DPP4
  IC50: 26 nM

## CCN(Cc1ccc(CNC(=O)OCCO[C@]23CC4C[C@H](C2)C[C@@]([C@H](N)C(=O)N2[C@H](C#N)C[C@@H]5C[C@@H]52)(C4)C3)cc1)C[C@H](O)[C@@H](O)[C@H](O)[C@H](O)CO [Compound 23, 2-(((1R,3S,5S)-3-((S)-1-amino-2-((1S,3S,5S)-3-cyano-2-azabicyclo[3.1.0]hexan-2-yl)-2-oxoethyl)adamantan-1-yl)oxy)ethyl (4-((ethyl((2S,3R,4R,5R)-2,3,4,5,6-pentahydroxyhexyl)amino)methyl)benzyl)carbamate Formate]
Human DPP4
  IC50: 4.2 nM

## CCCCCCCS(=O)C12CC3C[C@@H](CC(NCC(=O)N4CCC[C@H]4C#N)(C3)C1)C2 (stereo in doubt) [Compound 3, (2S)-1-(((1S,3R,5S)-3-(heptylsulfinyl)adamantan-1-yl)glycyl)pyrrolidine-2-carbonitrile]
Human DPP4
  IC50: 9 nM

## CC#CCn1c(N2CCC[C@@H](N)C2)nc2c1c(=O)n(Cc1ccc(C(=O)O)cc1)c(=O)n2C [Compound 28]
Human DPP4
  IC50: 10.5 nM
